# Test results reported in US7365211B2, “Heterocyclic GABAA subtype selective receptor modulators” (Roche Palo Alto LLC, priority 2003, dated 2008).
# Where “and” joins values, the source holds several entries; their conditions need not be identical. Equal entries are not always repeated. Structures can show the parent of a compound that is named as a salt.
# What was measured:
# [1] = molecular target: T1, GABAA α2β3γ2 (Homo sapiens, UniProt P18507+P28472+P47869); assay: 35S-TBPS binding assay (competition), HEK293 membranes with GABAA α2β3γ2 construct; settings: 35S-TBPS (5 nM) competition, GABA 1 μM, 2 hours at room temperature, read-out: pIC50 α2β3γ2 (converted)
# T1 construct: expressed in transfected cells; host or cells: HEK293
# Protocol: (§1) The binding assay is based on the assay reported by K. Gee et al., Eur. J. Pharmacol. 1987 136:419-423.
# (§2) Homogenate preparation: Membrane preparations of HEK293 cells containing either GABAA α1β2γ2 or GABAA α2β3γ2 constructs were performed according to a modified procedure previously described by Gee et al. (supra). Whole HEK 293 cells in D-PBS (calcium/magnesium free) buffer adjusted to pH 7.4 were centrifuged at 7,280×g for 20 m. After discarding the supernatant, the pellet was resuspended in the buffer and centrifuged at 1,820×g for 10 m. Afterwards, the supernatant was discarded and the pellet resuspended in ice-cold preparation buffer (50 mM Tris HCl pH 7.4, 4° C. and 150 mM KCl), homogenized for 30 sec using a Brinkmann Polytron PT3000 (setting 6) and centrifuged at 48,000×g for 30 m at 4° C. The centrifugation and homogenization procedure was repeated two more times for a total of 3 times before resuspending the membranes at a final protein concentration of 0.5 mg/mL. Aliquots (30 mL) of the final membrane preparation were then centrifuged at 48,000×g for 30 m, and the resulting pellets were stored at −80° C. until required.
# (§3) 35S-TBPS binding assay. Membrane pellets containing either GABAA α1β2γ2 or GABAA α2β3γ2 constructs were thawed on ice, resuspended in 10 mL of 50 mM Tris HCl pH 7.4, 4° C. and 150 mM KCl and centrifuged at 48,000×g, 30 m at 4° C. After discarding the supernatant, the pellet was resuspended in 30 mL incubation buffer (50 mM Tris HCl pH 7.4, 25° C. and 150 mM KCl) at approximately 0.5 mg/mL protein concentration. In ^35S-TBPS competition studies, HEK293 membranes were incubated with ^35S-TBPS (5 nM final) and GABA (1 μM) in the absence or presence of competitor at concentrations ranging from 0.01 nM to 10 μM in 125 μL incubation buffer for 2 hours at room temperature (˜22° C.). Non-specific binding was assayed with picrotoxin (100 μM final concentration). […] Measurement of bound radioactivity was performed using a Packard Microplate 96 well topcount scintillation counter. […]
# [2] = molecular target: T2, GABAA α1β2γ2 (Homo sapiens, UniProt P14867+P18507+P47870); assay: 35S-TBPS binding assay (competition), HEK293 membranes with GABAA α1β2γ2 construct; settings: 35S-TBPS (5 nM) competition, GABA 1 μM, 2 hours at room temperature, read-out: pIC50 α1β2γ2 (converted)
# T2 construct: expressed in transfected cells; host or cells: HEK293
# Protocol: as §1, §2, §3
SMILES,melting point,IC50 [1] [nM],IC50 [2] [nM]
Cl.Cn1cc2cccc(-c3ccc(Cl)cc3Cl)c2n1,133 to 147 °C,,
CC/C=C(\CCC)c1c2cccc(-c3ccc(Cl)cc3Cl)c2nn1C.Cl,148 to 150 °C,,
Cl.Cn1cc2ccnc(-c3ccc(Cl)cc3Cl)c2n1,190.9 to 195.5 °C,,
CCCN(CCC)c1c2cccc(-c3ccc(Cl)cc3Cl)c2nn1C.Cl,139 to 140 °C,,
COc1ccc(-c2cccc3c(N(C)C)n(C)nc23)c(C)c1.Cl,166 to 167 °C,,
CNCc1c2cccc(-c3ccc(Cl)cc3Cl)c2nn1C.Cl,211.1 to 213 °C,,
Cc1cc(C)c(-c2cccc3c(N(C)C)n(C)nc23)c(C)c1.Cl,169.9 to 171.9 °C,,
CC(=O)N(C)Cc1c2cccc(-c3ccc(Cl)cc3Cl)c2nn1C.Cl,146.2 to 147.8 °C,,
Cl.Cn1nc2c(-c3ccc(Cl)cc3Cl)cccc2c1CNN,172.5 to 176 °C,,
COC(=O)NCc1c2cccc(-c3ccc(Cl)cc3Cl)c2nn1C.Cl,146.3 to 148.6 °C,,
Cn1nc2c(-c3ccc(Cl)cc3Cl)cccc2c1COC(N)=O,184 to 185.5 °C,,
"Cc1cc(C)c(-c2cccc3cn(C)nc23)c(C)c1 [A5, 2-Methyl-7-(2,4,6-trimethyl-phenyl)-2H-indazole]",180 to 182 °C,,
"Cc1cc(C#N)ccc1-c1cccc2cn(C)nc12 [A6, 3-Methyl-4-(2-methyl-2H-indazol-7-yl)-benzonitrile]",101 to 105 °C,,
"Cc1c2cccc(-c3ccc(Cl)cc3Cl)c2nn1C [A14, 7-(2,4-Dichloro-phenyl)-2,3-dimethyl-2H-indazole; hydrochloride]",,30.9,295
"C=Cc1c2cccc(-c3ccc(Cl)cc3Cl)c2nn1C [A17, 7-(2,4-Dichloro-phenyl)-2-methyl-3-vinyl-2H-indazole]",,26.3,1170
"C=Cc1c2cccc(-c3c(C)cc(C)cc3C)c2nn1C [A18, 2-Methyl-7-(2,4,6-trimethyl-phenyl)-3-vinyl-2H-indazole]",84.9 to 95.4 °C and 85 to 95 °C,,
"C#Cc1c2cccc(-c3ccc(Cl)cc3Cl)c2nn1C [A20, 7-(2,4-Dichloro-phenyl)-3-ethynyl-2-methyl-2H-indazole]",129.9 to 130.9 °C,,
"CO/N=C\c1c2cccc(-c3ccc(Cl)cc3Cl)c2nn1C [A22, 7-(2,4-Dichloro-phenyl)-2-methyl-2H-indazole-3-carbaldehyde O-methyl-oxime]",159.2 to 160.5 °C,,
"Cn1nc2c(-c3ccc(Cl)cc3Cl)cccc2c1Br [A27, 3-Bromo-7-(2,4-dichloro-phenyl)-2-methyl-2H-indazole]",137 to 139 °C,13.5,575
"Cn1nc2c(-c3ccc(Cl)cc3Cl)cccc2c1C#N [A29, 7-(2,4-Dichloro-phenyl)-2-methyl-2H-indazole-3-carbonitrile]",137 to 139 °C,,
"Cn1nc2c(-c3ncc(Cl)cc3Cl)cccc2c1Br [A32, 3-Bromo-7-(3,5-dichloro-pyridin-2-yl)-2-methyl-2H-indazole]",154.5 to 156.2 °C,,
"Cn1cc2cncc(-c3ccc(Cl)cc3Cl)c2n1 [A34, 7-(2,4-Dichloro-phenyl)-2-methyl-2H-pyrazolo[4,3-c]pyridine]",153.9 to 155.3 °C,,
"Cn1cc2nccc(-c3ccc(Cl)cc3Cl)c2n1 [A35, 7-(2,4-Dichloro-phenyl)-2-methyl-2H-pyrazolo[4,3-b]pyridine]",160.5 to 162.8 °C,,
"Cn1nc2c(-c3ccc(Cl)cc3Cl)cccc2c1CNC(=O)N1CCOCC1 [C11, Morpholine-4-carboxylic acid [7-(2,4-dichloro-phenyl)-2-methyl-2H-indazol-3-ylmethyl]-amide]",98.8 to 104.5 °C,,
"CN(C)C(=O)NCc1c2cccc(-c3ccc(Cl)cc3Cl)c2nn1C [C13, 3-[7-(2,4-Dichloro-phenyl)-2-methyl-2H-indazol-3-ylmethyl]-1,1-dimethyl-urea]",101.9 to 105.1 °C,,
"CN(C)C(=O)Nc1c2cccc(-c3ccc(Cl)cc3Cl)c2nn1C [C15, 3-[7-(2,4-Dichloro-phenyl)-2-methyl-2H-indazol-3-yl]-1,1-dimethyl-urea]",123.3 to 126.3 °C,,

# Second part, the compound after the results:
melting point,IC50 [1] [nM],IC50 [2] [nM],SMILES
170.7 to 173.6 °C,,,"Cn1nc2c(-c3ccc(Cl)cc3Cl)cccc2c1S(N)(=O)=O [D3, 7-(2,4-Dichloro-phenyl)-2-methyl-2H-indazole-3-sulfonic acid amide]"
157.8 to 161.7 °C,,,"Cn1nc2c(-c3ccc(Cl)cc3Cl)cccc2c1S(=O)(=O)CCO [D5, 2-[7-(2,4-Dichloro-phenyl)-2-methyl-2H-indazole-3-sulfonyl]-ethanol]"
171.3 to 173.2 °C,,,"Cn1nc2c(-c3ccc(Cl)cc3Cl)cccc2c1NS(C)(=O)=O [D15, N-[7-(2,4-Dichloro-phenyl)-2-methyl-2H-indazol-3-yl]-methanesulfonamide]"
182.1 to 183.4 °C,,,"Cn1nc2c(-c3ccc(Cl)cc3Cl)cccc2c1S(C)(=O)=O [D-2, 3-Methanesulfonyl-2-methyl-7-(2,4-dichloro-phenyl)-2H-indazole]"
246 to 247 °C,,,"Cc1cc(C)c(-c2cccc3c(C(C)O)n(C)nc23)c(C)c1 (stereo not drawn) [E1, 1-[2-Methyl-7-(2,4,6-trimethyl-phenyl)-2H-indazol-3-yl]-ethanol]"
119 to 120.9 °C,,,"COCc1c2cccc(-c3ccc(Cl)cc3Cl)c2nn1C [E3, 7-(2,4-Dichloro-phenyl)-3-methoxymethyl-2-methyl-2H-indazole]"
197.3 to 201.2 °C,,,Cn1nc2c(-c3ccc(Cl)cc3Cl)cccc2c1CO [E4]
131.7 to 135.2 °C,,,"CC(=O)OCc1c2cccc(-c3ccc(Cl)cc3Cl)c2nn1C [E5, Acetic acid [7-(2,4-dichloro-phenyl)-2-methyl-2H-indazol-3-yl]-methyl ester]"
125.2 to 128 °C,,,"CN(C)C(=O)OCc1c2cccc(-c3ccc(Cl)cc3Cl)c2nn1C [E6, Dimethyl-carbamic acid 7-(2,4-dichloro-phenyl)-2-methyl-2H-indazol-3-ylmethyl ester]"
